Experimental data from patent US11071731B2, “Allosteric modulators of the mu opioid receptor” (Chiromics, LLC, priority 2017, dated 2021).

Experiments:
[1] = target: T1, mu opioid receptor (MOR) (Homo sapiens, UniProt P35372); assay: PathHunter β-arrestin recruitment assay, PAM mode with EC20 endomorphin-1; format: cell-based; details: for β-arr Max. Resp.: maximal response for β-arrestin recruitment; for EC50: β-arrestin recruitment, read-out: β-arr. EC50
Protocol: The effects of MOR PAMs and MOR SAMs on receptor activity were assayed using the PathHunter enzyme complementation assay technology (DiscoveRx, CA). A description of the technology employed is as follows.
Beta-Arrestin Pathway: The PathHunter β-arrestin assay monitors the activation of a GPCR in a homogenous, non-imaging assay format using a technology developed by DiscoveRx called Enzyme Fragment Complementation (EFC) with beta-galactosidase (β-Gal) as the functional reporter. […] EA is fused to β-Arrestin and ED is fused to the GPCR of interest. When the GPCR is activated and β-arrestin is recruited to the receptor, ED and EA complementation occurs, restoring β-gal activity, which is measured using chemiluminescent PathHunter Detection Reagents.
In this manner an EC50 for each test compound, and percent maximal response for each test compound, were determined for both the β-arrestin and cAMP pathways. Though the pharmacological effects of a given signal bias can be hypothesized (Raehal et al. (2011) Pharmacol. Rev. 63:1001-1019), it is not possible to know with certainty which bias ratio will be most advantageous in a clinical setting. […] Kenakin 2015a, supra. The information associated with the compounds detailed herein is the first large data set available for the prediction of ligand bias for an MOR PAM.

[2] = target: T1, mu opioid receptor (MOR); assay: Hit Hunter cAMP signaling assay (adenylyl cyclase inhibition), PAM mode with EC20 endomorphin-1; format: cell-based; details: for EC50: adenylyl cyclase inhibition, read-out: cAMP EC50; for cAMP Max. Resp.: maximal response for adenylyl cyclase inhibition

T1 sequence (P35372 whole entry): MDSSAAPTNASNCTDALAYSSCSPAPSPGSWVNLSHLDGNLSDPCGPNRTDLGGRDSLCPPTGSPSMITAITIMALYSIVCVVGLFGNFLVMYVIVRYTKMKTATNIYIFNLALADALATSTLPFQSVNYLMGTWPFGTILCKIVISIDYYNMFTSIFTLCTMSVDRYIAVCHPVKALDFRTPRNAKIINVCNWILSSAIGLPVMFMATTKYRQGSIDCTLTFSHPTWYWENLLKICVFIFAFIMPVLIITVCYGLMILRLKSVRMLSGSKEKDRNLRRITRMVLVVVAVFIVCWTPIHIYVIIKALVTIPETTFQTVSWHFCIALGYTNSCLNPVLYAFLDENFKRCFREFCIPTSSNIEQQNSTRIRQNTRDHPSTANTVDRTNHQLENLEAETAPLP

Row | SMILES | β-arr Max. Resp. [1] | EC50 [1] [nM] | EC50 [2] [nM] | cAMP Max. Resp. [2] | inhibition of β-arrestin recruitment at a static concentration of 5 μM ([1]; static concentration of 5 μM, printed in β-arr. EC50 column)
1 | COc1ccc(C2CC(C(F)(F)F)CN2S(=O)(=O)c2ccc(Cl)cc2)cc1Br (mixture of isomers) [Compound 86] | D (D represents a maximal response of < 40%) | > 2100 | > 2100 | D (D represents a maximal response of < 40%) | –
2 | CC1CCN(S(=O)(=O)c2ccc(Cl)cc2)C1c1ccc(Cl)c(C(F)(F)F)c1 (mixture of isomers) [Compound 87] | F (F represents a maximal response of > 60%) | > 2100 | > 2100 | D (D represents a maximal response of < 40%) | –
3 | CC1CCN(S(=O)(=O)c2ccc(Cl)cc2)C1c1ccc(Cl)cc1 (mixture of isomers) [Compound 88] | E (E represents a maximal response of 40-60%) | > 2100 | > 2100 | D (D represents a maximal response of < 40%) | –
4 | CC1CCN(S(=O)(=O)c2ccc(Cl)cc2)C1c1cccc(C(F)(F)F)c1 (mixture of isomers) [Compound 89] | F (F represents a maximal response of > 60%) | 700 to 2100 | > 2100 | D (D represents a maximal response of < 40%) | –
5 | COc1ccc(C2C(C(F)(F)F)CCN2S(=O)(=O)c2ccc(Cl)cc2)cc1Br (mixture of isomers) [Compound 90] | D (D represents a maximal response of < 40%) | > 2100 | > 2100 | D (D represents a maximal response of < 40%) | –
6 | CC1CCN(S(=O)(=O)c2ccc(Cl)cc2)C1c1ccc2c(c1)CCO2 (mixture of isomers) [Compound 91] | F (F represents a maximal response of > 60%) | > 2100 | > 2100 | D (D represents a maximal response of < 40%) | –
7 | CC1CCN(S(=O)(=O)c2ccc(Cl)cc2)C1c1ccc(Br)c(F)c1 (mixture of isomers) [Compound 92] | F (F represents a maximal response of > 60%) | 700 to 2100 | > 2100 | D (D represents a maximal response of < 40%) | –
8 | CC1CCN(S(=O)(=O)c2ccc(Cl)cc2)C1c1ccc(F)c(C#N)c1 (mixture of isomers) [Compound 93] | E (E represents a maximal response of 40-60%) | 700 to 2100 | > 2100 | D (D represents a maximal response of < 40%) | –
9 | CC1CCN(S(=O)(=O)c2ccc(Cl)cc2)C1c1ccc(OC(F)(F)F)c(Br)c1 (mixture of isomers) [Compound 94] | F (F represents a maximal response of > 60%) | < 700 | < 700 | D (D represents a maximal response of < 40%) | –
10 | CC1CCN(S(=O)(=O)c2ccc(Cl)cc2)C1c1ccc(F)cc1 (mixture of isomers) [Compound 95] | F (F represents a maximal response of > 60%) | > 2100 | > 2100 | D (D represents a maximal response of < 40%) | –
11 | CC1CCN(S(=O)(=O)c2ccc(Cl)cc2)C1c1ccc2c(c1)OCO2 (mixture of isomers) [Compound 96] | F (F represents a maximal response of > 60%) | > 2100 | > 2100 | D (D represents a maximal response of < 40%) | –
12 | COc1ccc(C2CCCCN2S(=O)(=O)c2ccc(Cl)cc2)cc1Br (racemic) [compound 4] | F (F represents a maximal response of > 60%) | > 2100 | – | – | –
13 | COc1ccc(C2CC(C(F)(F)F)CN2S(=O)(=O)c2ccc(Cl)cc2)cc1Br (single isomer, unassigned) [Compound 111] | F (F represents a maximal response of > 60%) | > 2100 | – | – | –
14 | COc1ccc(C2CC(F)CN2S(=O)(=O)c2ccc(Cl)cc2)cc1Br (single isomer, unassigned) [Compound 112] | – | – | – | – | G (G represents < 50% inhibition of β-arrestin recruitment at a static concentration of 5 μM, for compounds that were not tested for adenylyl cyclase inhibition)
15 | COc1ccc(C2CC(F)CN2S(=O)(=O)c2ccc(Cl)cc2)cc1Br (single isomer, unassigned) [Compound 114] | D (D represents a maximal response of < 40%) | > 2100 | – | – | –
16 | COc1ccc(C2N(S(=O)(=O)c3ccc(Cl)cc3)CCC2(F)F)cc1Br (single isomer, unassigned) [Compound 116] | F (F represents a maximal response of > 60%) | > 2100 | – | – | –
17 | COc1ccc(C2C(C(F)(F)F)CCN2S(=O)(=O)c2ccc(Cl)cc2)cc1Br (single isomer, unassigned) [Compound 117] | F (F represents a maximal response of > 60%) | > 2100 | – | – | –
